Key:
nasal epithelial cells = assay: Detection of apoptosis (caspase-3 staining) and necrosis (morphology) in nasal epithelium; settings: 2 hours following nasal treatment, 15 μl
[1] = system: primary nasal septal epithelial cells; type: cell-based, C57BL/6N mice
TC-1 epithelial cells = type: cell-based, murine
nasal septal tissue = system: nasal septal tissue; set-up: species or system C57BL/6 mice; settings: mouse, in vivo
[2] = system: B6.Cg-Tg(HLA-A/H2-D)2Enge/J mice; settings: mouse, in vivo
[3] = system: Bone marrow derived dendritic cells (BMDC); type: cell-based, C57BL/6 mice

Molecule | inflammation in nasal epithelium (nasal epithelial cells) | surface expression of MHC class II [1] | IL-6, TGF-β and TSLP in TC-1 supernatant (TC-1 epithelial cells) | cytokine response profile in nasal septal tissue (nasal septal tissue) | end titer of anti-HBsAg IgG [2] | secreted anti-HBsAg IgA [2] | cytokines and chemokines in BMDC supernatant [3]
CCCCCCCCCCCCCCCC[n+]1ccccc1 [CPC, cetylpyridinium chloride] | neutrophilic infiltration | – | – | – | – | – | –
cholera toxin [CT] | – | no significant difference | only IL-6 was induced | increases in only IL-6 and IL-12 common to both NE and CT | 6.4×10^5 | equivalent local mucosal immune responses | stimulated IL-1α, IL-1β and MIP-1α in BMDC in addition to IL-10, G-CSF, IL-10, IL-4, IL-6, IL-9, IL-12, IL-15, IL-17, TNF-α, and KC

Source: patent US20130273113A1 (priority 2012, published 2013)
